Experimental data reported in patent US20190284129A1, “LIPID COMPOUNDS AND COMPOSITIONS AND THEIR OPTHALMIC USE” (BIOZEP AS, priority 2015, published 2019).

Assays:
Assay type in all cases: cell-based
NF-κB pathway = assay: NF-κB luciferase reporter assay in NF-κB Reporter-HEK293 cells, TNFa stimulated; conditions: FIG. 5
Description: The NF-κB reporter (luc)-HEK293 cell line is designed for monitoring the nuclear factor Kappa B (NF-κB) signal transduction pathways. It contains a firefly luciferase gene driven by four copies of NF-κB response element located upstream of the minimal TATA promoter. After activation by pro-inflammatory cytokines or stimulants of lymphokine receptors, endogenous NF-κB transcription factors bind to the DNA response elements, inducing transcription of the luciferase reporter gene.
NF-κB Reporter-HEK293 cells were cultured in MEM medium with 10% FBS, 1% non-essential amino acids, 1 mM Na-pyruvate, 1% Penn-strep, and 100 µg/ml of Hygromycin B.
To perform the NF-κB luciferase reporter assay, NF-κB Reporter-HEK293 cells were seeded at 40,000 cells per well into white clear-bottom 96-well microplate in 45 μl of growth medium without Hygromycin B. Cells were incubated at 37° C. and 5% CO2 overnight to allow them to recover and reattach. The following day a series of dilutions of compounds were made in assay medium (MEM medium with 0.5% FBS, 1% non-essential amino acids, 1 mM Na-pyruvate, 1% Penn-strep). The medium was removed from the wells and 45 μl of diluted compound was added to the cells. Assay medium with DMSO was added to the untreated control wells and cell-free control wells. The final concentration of DMSO was 0.25%. The cells were incubated overnight at 37° C. in CO2 incubator. […]
After treatment, cells were then lysed and a luciferase assay was performed using the ONE-Step luciferase assay system. […] Luminescence was measured using a luminometer (BioTek Synergy™ 2 microplate reader).
Reporter assays were performed in triplicate at each concentration. The luminescence intensity data were analyzed using the computer software, Graphpad Prism. In the absence of the compound, the luminescence intensity (Lt) in each data set was defined as 100%. In the absence of cells, the luminescence intensity (Lb) in each data set was defined as 0%. The percent luminescence in the presence of each compound was calculated according to the following equation: % Luminescence=(L−Lb)/(Lt−Lb), where L=the luminescence intensity in the presence of the compound, Lb=the luminescence intensity in the absence of cells, and Lt=the luminescence intensity in the absence of the compound. The values of % luminescence versus a series of compound concentrations were then plotted using non-linear regression analysis of a Sigmoidal dose-response curve generated with the equation Y=B+(T B)/1+10^((Log EC50-X)×Hill Slope), where Y=percent luminescence, B=minimum percent luminescence, T=maximum percent luminescence, X=logarithm of compound and Hill Slope=slope factor or Hill coefficient. The IC50 value was determined by the concentration causing a half-maximal percent activity.

ARPE-19 cells = assay: oxidative stress (tert-butyl hydroperoxide) cytolysis assay in ARPE-19 retinal pigment epithelial cells
Description: In order to evaluate the potential of BIZ-101 to protective the eye from oxidative stress damage the compound was tested in a cell based assay. Oxidative stress was induced in an ARPE-19 cell line using tert-butyl hydroperoxide at different concentrations. The cellular viability was kinetically monitored and measured by analysing the plasma membrane integrity based on the incorporation of a non-permeant and fluorescent DNA intercalating agent that selectively stain cytolytic cells with comprised plasma membranes.
(§1) The ARPE-19 cell line was seeded and cultured in DMEM-F12 medium+10% SVF for 24 hrs in a 96 well plate. Cells were pre-treated or not with either fenofibric acid (25 μM) or compound BIZ-101 (10 μM) during this 24 hr period. After 24 hrs, the different concentrations of t-butyl hydroperoxide were added in the presence of a fluorescent DNA intercalating agent for the following monitoring. Live content time-lapse imaging was performed with a sampling rate of 1 image every 2 hr over a 96 hrs period. The number of fluorescent/cytolytic cells were counted and reported during the experiment. The treatment conditions were tested in one experiment session in a triplicate format.
Fenofibric acid was used at 25 μM and was ordered from Sigma Aldrich. The day of the pre-treatment, a 25 mM stock solution of fenofibric acid was prepared in DMSO and diluted in the complete culture medium at 25 μM. 100 μL of this solution or 100 μL of complete culture medium+0.1% DMSO replaced the 100 μL of the complete culture medium already present in the well. The day of the treatment with t-butyl hydroperoxide, a 2 times concentrated solution of fenofibric acid was freshly diluted in the complete culture medium and 50 μL of this solution or 50 μL of complete culture medium+0.2% DMSO were added to the 100 μL of the culture medium already present in the well.
Compound BIZ-101 was tested at a final concentration of 10 μM. A 10 mM predilution was prepared in DMSO from a 10 mM stock solution. The 10 mM solution of BIZ 101 was diluted in the complete culture medium at 10 μM. 100 μL, of this solution or 100 μL of the complete culture medium+0.1% DMSO replaced the 100 μL, of the complete culture medium already present in the well. The day of the treatment with t-butyl hydroperoxide, a 2 times concentrated solution of BIZ 101 was freshly diluted in the complete culture medium and 50 μL of this solution or 50 μL of complete culture medium+0.2% DMSO were added to the 100 μL of the culture medium already present in the well.
Preparation of the tert-butyl hydroperoxide [tBHP] solution: 0, 0.01 mM, 0.03 mM, 0.1 mM, 0.3 mM, 1 mM, 3 mM and 10 mM. A 4 times concentrated solution of tBHP was freshly diluted in the complete culture medium for each of the concentrations to be tested. 50 μL of the 4 times concentrated solution was added to the 150 μL of the cultured medium.
In order to evaluate the potential of BIZ-102 to protect the eye from oxidative stress damage the compound was tested in a cell based assay similar to Example 24 with the following changes. The oxidative stress in the ARPE-19 cell line was induced by using 3 different concentrations of tBHP: 10 μM, 30 μM and 100 μM and BIZ-102 was tested in 2 different concentrations: 1 μM and 10 μM.
as §1, with “with” for “with either fenofibric acid (25 μM) or”, “BIZ-102 (1 μM and 10” for “BIZ-101 (10”
Compound BIZ-102 was tested at a final concentration of 1 and 10 μM. […]

neuroblastoma cells = assay: mitochondrial DNA damage in neuroblastoma cells (RT-qPCR, TaqI cleavage); conditions: 10 μM compound, 24 hours, high glucose (20 mM); FIG. 3
Description: In this study, neuroblastoma cells were cultivated at near confluency (50-75%) in DMEM/F12/10% serum high glucose (20 mM) supplied with 10 μM BIZ-101 or BIZ-105 for 24 hours prior to analyses. These conditions readily induce mtDNA damage that is representative of that accumulating during aging as the result of age-associated oxidative stress.
For DNA damage analyses, cells were washed, and DNA isolated using Qiagen Blood&Tissue DNA isolation kit. DNA damage level was analyzed by a RT-qPCR method based on the ability of DNA lesions to inhibit restriction enzyme cleavage, as described previously (http://www.ncbi.nlm.nih.gov/pubmed/25631007) using primers 5′-[…]-3′ and 5′-[…]-3′ (sense and anti sense, respectively). Briefly, genomic DNA (6 ng) was treated with 1 U TaqI for 15 min at 65° C. DNA damage frequency was calculated as 2exp−(ctTaql−ctnt), where ctTaql and ctnt represent CT values of TaqI-treated and non-treated genomic DNA, respectively.

human PPARα = biological target: T1, human PPARα (Homo sapiens, UniProt Q07869); assay: stable reporter HeLa cell line, GAL4-PPARα ligand activity; conditions: 5 μM compound, relative to 1 μM GW7647; FIG. 6
T1 construct: expressed in transfected cells
T1 sequence (Q07869 239-466 limits assumed): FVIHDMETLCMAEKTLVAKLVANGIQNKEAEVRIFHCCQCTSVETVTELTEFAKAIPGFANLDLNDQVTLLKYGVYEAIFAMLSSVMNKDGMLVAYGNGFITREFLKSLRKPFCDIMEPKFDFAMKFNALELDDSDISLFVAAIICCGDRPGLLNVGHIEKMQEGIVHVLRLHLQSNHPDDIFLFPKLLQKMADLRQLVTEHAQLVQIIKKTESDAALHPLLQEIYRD
Description: (§2) To screen the human PPARα, PPARδ and PPARγ ligand activity of the compounds a stable reporter cell line was used (HeLa cell line). The stable reporter cell line express respectively a chimeric protein containing the ligand binding domain (LBD) of human PPARα, human PPARδ and human PPARγ fused to the yeast transactivator GAL4 DNA binding domain (DBD). The luciferase (Luc) reporter gene is driven by a pentamer of the GAL4 recognition sequence in front of a β-globin promoter. The use of GAL4-PPARα, GAL4-PPARδ and GAL4-PPARγ chimeric receptors allows for elimination of background activity from endogenous receptors and quantification of relative activity across the three PPAR subtypes with the same reporter gene. […] Luciferase activity was measured by a luminometer and luciferase activity was expressed as relative light units (RLU).
Day 1: Seed 96—well plate with PPAR cells. Cell appearance was checked using optical microscopy. Cells were cultivated at confluency (80-100%).
Day 2: The test articles dissolved in DMSO were added to the cells. The controls (positive controls and the solvent control) were included in each individual plate. […]
Day 3: To determine the PPAR subtype activity of the tested compounds, the percentage of PPAR ligand activity was calculated for each tested compound as follows: […]

human PPARγ = biological target: T2, human PPARγ (Homo sapiens, UniProt P37231); assay: stable reporter HeLa cell line, GAL4-PPARγ ligand activity; conditions: 5 μM compound, relative to 1 μM BRL49653; FIG. 7
T2 construct: expressed in transfected cells
T2 sequence (P37231 238-503 limits assumed): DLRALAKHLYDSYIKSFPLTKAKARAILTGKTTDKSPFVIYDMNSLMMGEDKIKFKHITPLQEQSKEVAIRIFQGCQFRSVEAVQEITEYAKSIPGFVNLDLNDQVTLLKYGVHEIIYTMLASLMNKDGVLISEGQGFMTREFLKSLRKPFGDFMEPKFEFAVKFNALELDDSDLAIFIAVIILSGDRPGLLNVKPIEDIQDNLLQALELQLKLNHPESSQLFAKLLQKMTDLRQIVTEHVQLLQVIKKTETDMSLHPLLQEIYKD
Description: as §2
Day 1: Seed 96—well plate with PPAR cells. Cell appearance was checked using optical microscopy. Cells were cultivated at confluency (80-100%). […]
Day 3: To determine the PPAR subtype activity of the tested compounds, the percentage of PPAR ligand activity was calculated for each tested compound as follows:
Percentage of PPARγ activity for the tested compound in 5 μM concentration=(RLUXcomp×100)/RLUBRL49653 where RLUBRL49653 is the luminescence measured from PPARγ cells incubated with 1 μM […] and expressed as Relative Light Units. […]

| SMILES | dose dependence of inhibitory effect on the NF-κB pathway (NF-κB pathway) | complete inhibition of the NF-κB pathway (NF-κB pathway; at high concentration) | dose dependent cytotoxicity of tBHP (ARPE-19 cells; 6 hrs after addition of tBHP, 24 hr pre-treatment, fenofibric acid 25 μM, BIZ-101 10 μM) | protective effects against tBHP cytotoxicity (ARPE-19 cells; 24 hrs after addition of t-BHP, fenofibric acid 25 μM, BIZ-101 10 μM) | protective effect compared with fenofibric acid (ARPE-19 cells; BIZ-101 10 μM vs fenofibric acid 25 μM) | effect on retinal pigment epithelial cells during conditions of oxidative stress (ARPE-19 cells; overall conclusion) | mtDNA damage (neuroblastoma cells) | PPARα activity (human PPARα) | PPARγ activation (human PPARγ) |
| --- | --- | --- | --- | --- | --- | --- | --- | --- | --- |
| CC/C=C\C/C=C\C/C=C\C/C=C\C/C=C\CCC(CC)C(=O)O (stereo not shown) [BIZ-101, 2-ethyleicosa-(all-Z)-5,8,11,14,17-pentaenoic Acid] | dose dependent | completely inhibited | slightly decreased | more efficient | much more potent | protective effect | reduced mtDNA damage | – | – |
| CC/C=C\C/C=C\C/C=C\C/C=C\C/C=C\CCOCC(=O)O [BIZ-108, 3-oxa-(6Z,9Z,12Z,15Z,18Z)-heneicosa-(6,9,12,15,18)-pentaenoic Acid] | – | – | – | – | – | – | – | all compounds except BIZ-108 had potent activity | activated PPARγ except for the unsubstituted derivative BIZ-108 |
| CC/C=C\C/C=C\C/C=C\C/C=C\C/C=C\C/C=C\CC(C)C(=O)O (stereo not shown) [BIZ-105, 2-methyldocosa-(all-Z)-4,7,10,13,16,19-hexaenoic Acid] | – | – | – | – | – | – | slightly reduced level of mtDNA damage | – | – |
